{"source": "patent US11680264B2", "about": "“Methods of modulating melanosome pH and melanin level in cells” (Cornell University, priority 2016, dated 2023)", "key": {"[1]": {"system": "sAC^FF mouse melanocytes", "assay": "DAMP melanosome pH assay (HMB45 co-staining)", "type": "cell-based", "details": "KH7 30 μM, 4 hours", "procedure": "(§1) N-{3-[(2,4-dinitrophenyl)amino]propyl}-N-(3-aminopropyl)methylamine dihydrochloride (DAMP) is a weakly basic amine that is taken up in acidic organelles of live cells and which has been used to measure melanosome pH (Bin et al., PLOS One, 10(6):e0129273 (2015); Tabata et al., Cell Tissue Res., 332(3): 447-460 (2008)). Cells were cultured on sterile glass coverslips in 24-mm wells at 50×10^3 cells/coverslip. […] After permeabilization with 0.1% Triton X-100 in Buffer A at −20° C., the cells were labeled with the supplied anti-DNP antibody (Oxford Biomedical Research) according to kit protocol. Melanosomes were identified using the monoclonal antibody (anti-HMB45, 1:40, Santa Cruz Biotechnology). Fluorescence was detected after secondary staining with Alexa Fluor 546 donkey anti-goat IgG antibody (Invitrogen) and Alexa Fluor 647 donkey anti-mouse IgG antibody (Invitrogen). All quantitative analyses were performed using the Object Count tool in Nikon AR 4.60. For each image, the lower intensity threshold limit of each fluorescence channel was defined as the intensity of the dimmest punctum returned using the 3 points circle threshold tool. The upper intensity threshold limit was set to the maximum value. Equivalent diameter (EqDiameter) was restricted to 1.85-30.00 pixels. Circularity was restricted to 0.20-1.00. Mean fluorescence intensity was measured for all DAMP^+ puncta. Melanosomes were identified as HMB45^+ puncta. DAMP measurements were only recorded when colocalized with HMB45. Frequency distributions were generated for each sample from mean DAMP fluorescence intensity of DAMP^+ melanosomes. All analyses were performed on two replicate coverslips (n≥15 cells per coverslip). Melanosomes were first identified as TRP1^+ or tyrosinase^+ puncta. sAC^+ melanosomes were identified as R52^+ or R21^+ puncta colocalizing with TRP1^+ or tyrosinase^+ puncta. The degree of colocalization between sAC and melanosomes was calculated as the number of sAC+ melanosomes divided by the total number of melanosomes and expressed as a percentage.\n(§2) The effect of pharmacologic inhibition of sAC was also measured using the DAMP assay described above. Briefly, Cells were cultured on sterile glass coverslips in 24-mm wells at 50×10^3 cells/coverslip and treated or not treated for 4 hours with 30 μM KH7 or LRE1. […] After permeabilization with 0.1% Triton X-100 in Buffer A at −20° C., the cells were labeled with the supplied anti-DNP antibody (Oxford Biomedical Research) according to kit protocol. Melanosomes were identified using the monoclonal antibody (anti-HMB45, 1:40, Santa Cruz Biotechnology). Fluorescence was detected after secondary staining with Alexa Fluor 546 donkey anti-goat IgG antibody (Invitrogen) and Alexa Fluor 647 donkey anti-mouse IgG antibody (Invitrogen). All images were acquired using a Zeiss LSM 880 and analyzed using NIS-Elements AR 4.60 (Nikon)."}, "[2]": {"system": "sAC^KO mouse melanocytes", "assay": "DAMP melanosome pH assay (HMB45 co-staining)", "type": "cell-based", "details": "4 hours, KH7 30 μM, cAMP analogs 500 μM, ESI-09 10 μM, MSH 100 nM", "procedure": "as §1, §2"}, "[3]": {"system": "sAC^FF mouse melanocytes", "assay": "Cellular eumelanin content", "type": "cell-based", "details": "KH7 30 μM or LRE1 50 μM, 96 hours", "procedure": "(§3) FIGS. 15A-15J provide the results of experiments analyzing the effect of sAC activity on melanin production. FIG. 15A is a graph illustrating the cellular eumelanin and pheomelanin content in sAC^FF (FF) and sAC^KO (KO) mouse melanocytes. Numbers above bars represent the ratio of pheomelanin to eumelanin. Average of triplicate determinations. FIG. 15B is a graph illustrating the cellular eumelanin content of sAC^FF and sAC^KO mouse melanocytes grown for 96 hours in the absence (−, DMSO) or presence of KH7 (+, 30 μM). Average of triplicate determinations. FIG. 15C is a graph illustrating the fold over baseline cellular eumelanin level of human melanocytes (n=8) treated with KH7 (30 μM) or vehicle (DMSO) for 48 hours. All assays performed in triplicate. Students t-test **P<0.01, ****P<0.0001. FIG. 15D is images of cell pellets of sAC^FF and sAC^KO mouse melanocytes. FIG. 15E is a graph of the melanin levels of pairs of sAC^FF and sAC^KO mouse melanocytes. FIGS. 15F and 15G are images of cell pellets of sAC^FF mouse melanocytes grown in the absence (DMSO, FIGS. 15G and 15F, left panels) or presence of KH7 (FIG. 15G, 30 μM, right panel) or LRE1 (FIG. 15F, 50 μM, right panel) for 96 hours. FIG. 15H is images of cell pellets of human melanocytes (C226, C38) treated with vehicle control (DMSO, left) or KH7 (30 μM, right) for 48 hours. FIG. 15I is images of cell pellets of human melanocytes (C226) treated with vehicle control (DMSO, left) or ESl-09 (10 μM, right) for 48 hours. FIG. 15J is a graph illustrating the fold over baseline cellular (eumelanin) level of human melanocytes treated with ESl-09 (10 μM) or vehicle (DMSO) for 48 hours (n=3, distinct human cell lines). For FIGS. 15E and 15J Students t-test, *p<0.05, **p<0.01, ****p<0.0001."}, "[4]": {"system": "sAC^KO mouse melanocytes", "assay": "Cellular eumelanin content", "type": "cell-based", "details": "96 hours", "procedure": "as §3"}, "[5]": {"system": "C3H/HeJ mice", "assay": "Topical treatment of epilated back skin, hair pigmentation", "type": "in vivo, mouse", "procedure": "Therefore, experiments were performed to determine whether inhibition of sAC in animals could alter hair pigmentation. Animal experiments were performed in accordance with approved Institutional Animal Care and Use Committee protocol at Weill Cornell Medicine. Age and gender matched C3H/HeJ mice (female, 7 weeks old) were purchased from The Jackson Laboratory. For the analysis of hair pigmentation, the upper and lower dorsum of each mouse were epilated using hair removal wax. 10 μl of KH7 (42 mg/ml in DMSO), LRE1 (28 mg/ml in DMSO) or DMSO (vehicle control) was topically applied onto the upper back and DMSO was applied to the lower back three times a day over two weeks. These mice were monitored for changes in coat color as the epilated hair grew back. Hair was removed from each treated area after 3 weeks to measure the length of the total hair, apical black tip and subapical agouti (pheomelanin) band under a stereo microscope. Mice were euthanized and the treated skin was submitted to a blinded animal pathologist for histological evaluation of the epidermis and hair follicles. This experiment was performed twice with 3-4 mice per cohort (total n=6-7)"}, "[6]": {"details": "topical on back, hair removed after 3 weeks"}}}
{"smiles": "CC(Sc1nc2ccccc2[nH]1)C(=O)N/N=C/c1cc(Br)ccc1O", "note": "(stereo not drawn) [KH7]", "values": [{"measurement": "HMB45 staining intensity", "setting": "[1]; mouse melanocytes", "result": "had no effect"}, {"measurement": "melanosome pH (DAMP uptake at HMB45 positive melanosomes), substance alone", "setting": "[1]; sAC^FF mouse melanocytes, cAMP 500 μM, H89 10 μM, PKI 10 μM, ESI-09 10 μM", "result": "reduction in DAMP uptake (alkaline shift in pH)"}, {"measurement": "melanosome pH (DAMP), substance alone", "setting": "[2]", "result": "had no effect"}, {"measurement": "eumelanin levels", "setting": "[3]", "result": "increased eumelanin levels"}, {"measurement": "eumelanin levels", "setting": "[4]", "result": "had no effect"}, {"measurement": "eumelanin production in hair (microscopic examination)", "setting": "[5]; [6]", "result": "increase in eumelanin production"}, {"measurement": "length of the agouti (pheomelanin) band", "setting": "[5]; [6]", "result": "reduction in length of the agouti (pheomelanin) band"}, {"measurement": "histologic examination of treated skin", "setting": "[5]; topical on back, two weeks", "result": "did not reveal any pathological change to the hair follicles or epidermis"}, {"measurement": "colour of regrown hair versus vehicle control", "setting": "[5]; topical on epilated back, 10 μl KH7 42 mg/ml or LRE1 28 mg/ml in DMSO, three times a day over two weeks", "result": "visual darkening of regrown hair"}]}
